In ChEMBL document CHEMBL5608141, “Identification of compartment-specific drug sensitivities in CRC organoid-stroma co-cultures” (2024):

Tests used:
Type in all cases: functional, Homo sapiens
Set-up in all cases: dose or concentration left out as unconfirmed
Colon cancer organoid [1] = experiment: Identification of compartment-specific drug sensitivities in O20 CRC organoid-stroma F20 CAF co-cultures. Organoid is transduced with Lucferase2-P2A-EGFP lentivirus, fibroblast with Renilla-dsRed lentivirus. Dual-Glo Luciferase assay is used to report viability data.
Colon cancer organoid [2] = experiment: Identification of compartment-specific drug sensitivities in O06 CRC organoid-stroma F06 CAF co-cultures. Organoid is transduced with Lucferase2-P2A-EGFP lentivirus, fibroblast with Renilla-dsRed lentivirus. Dual-Glo Luciferase assay is used to report viability data.
Colon cancer organoid [3] = experiment: Identification of compartment-specific drug sensitivities in O14 CRC organoid-stroma F14 CAF co-cultures. Organoid is transduced with Lucferase2-P2A-EGFP lentivirus, fibroblast with Renilla-dsRed lentivirus. Dual-Glo Luciferase assay is used to report viability data.
[4] = Transduced with Lucferase2-P2A-EGFP lentivirus
[5] = Transduced with Renilla-dsRed lentivirus

Row | Structure (SMILES) | Cell Viability (Colon cancer organoid [1]; [4]) [%] | Cell Viability (Colon cancer organoid [1]; [5]) [%] | Cell Viability (Colon cancer organoid [2]; [4]) [%] | Cell Viability (Colon cancer organoid [2]; [5]) [%] | Cell Viability (Colon cancer organoid [3]; [4]) [%] | Cell Viability (Colon cancer organoid [3]; [5]) [%]
1 | O=C1c2ccc(Nc3ccc(F)cc3F)cc2CCc2ccc(OC[C@H](O)CO)cc21 [Skepinone-L] | 88.6485 | 86.6611 | 115.343 | 88.0925 | 166.491 | 75.8508
2 | CN1CCN(C(=O)C(C)(C)c2ccc(C(=O)Nc3cn4cc(-c5cc(C(C)(C)C)cc(C(C)(C)C)c5)ccc4n3)cc2)CC1 [T3-CLK-N] | 83.0148 | 112.725 | 112.366 | 80.0588 | 123.449 | 101.908
3 | CN1CCN(C(=O)C(C)(C)c2ccc(C(=O)Nc3cn4cc(-c5ccncc5)ccc4n3)cc2)CC1 [T3-CLK] | 17.3495 | 291.942 | 27.6026 | 129.967 | 20.1131 | 93.3356
4 | COc1cccc(CNC(=O)c2nc3scc(CN(C)Cc4ccccc4)c3c(=O)[nH]2)c1 [T-26f] | 156.545 | 109.586 | 112.096 | 76.7347 | 126.414 | 118.487
5 | O[C@H]1CC[C@H](Nc2ncc3nc(Nc4c(F)cc(F)cc4F)n([C@H]4CCOC4)c3n2)CC1 [TANZISERTIB] | 128.622 | 97.8883 | 96.802 | 109.826 | 133.231 | 127.243
6 | Cc1nc(-c2cn3c(n2)-c2ccc(-c4cnn(C(C)(C)C(N)=O)c4)cc2OCC3)n(C(C)C)n1 [TASELISIB] | 15.8824 | 146.008 | 42.3556 | 62.2904 | 38.4959 | 67.2929
7 | COc1cccc2c1c(O)c(C(=O)N(C)c1ccc(C(F)(F)F)cc1)c(=O)n2C [TASQUINIMOD] | 64.5374 | 99.9703 | 78.5663 | 130.265 | 112.754 | 82.8858
8 | C[C@@H]1CCN(C(=O)CC#N)C[C@@H]1N(C)c1ncnc2[nH]ccc12.O=C(O)CC(O)(CC(=O)O)C(=O)O [TOFACITINIB CITRATE] | 113.321 | 86.9545 | 105.115 | 91.9737 | 83.3835 | 105.446
9 | CCC(=O)N1CCN(c2ccc(-n3c(=O)ccc4cnc5ccc(-c6cnc7ccccc7c6)cc5c43)cc2C(F)(F)F)CC1 [TORIN1] | 7.451 | 44.8651 | 4.705 | 40.1911 | 10.1866 | 12.2493
10 | Cc1cnc(-c2cc(Cl)ccc2F)cc1-n1c(=O)n(CC(N)=O)c2cnccc21 [TP-008] | 64.1266 | 114.054 | 13.7504 | 213.932 | 74.2388 | 68.4272
11 | Cn1nc(C(F)(F)F)cc1-c1cnc(N2CCc3cc(S(=O)(=O)Nc4c(F)cc(Cl)cc4F)cc(N4CCCC4=O)c32)nc1 [TP-020] | 86.7802 | 95.2287 | 69.3758 | 110.898 | 113.877 | 116.294
12 | Cc1cc(-n2nc(Cc3cc(F)cc(C(F)(F)F)c3)nc2C)ccc1C(N)=O [TP-024] | 120.055 | 118.791 | 115.389 | 121.941 | 124.645 | 106.61
13 | CC1CCN(c2ccnc(NCc3cn(C)cn3)n2)CC1 [TP-040] | 75.5826 | 95.0735 | 104.895 | 163.738 | 70.4837 | 82.5883
14 | CN1CCN(c2ccnc(NCCc3ccccc3)n2)CC1 [TP-040n] | 67.1911 | 97.5889 | 57.9985 | 123.721 | 106.261 | 101.91
15 | CC(=O)Nc1cccc(-n2c(=O)n(C3CC3)c(=O)c3c(Nc4ccc(I)cc4F)n(C)c(=O)c(C)c32)c1 [TRAMETINIB] | 2.051 | 46.1337 | 4.775 | 48.8246 | 7.5472 | 16.7625
16 | Cc1ccc2[nH]c(CNCCCc3ccncc3)cc(=O)c2c1 [UCSF924NC] | 121.808 | 109.302 | 92.2965 | 82.507 | 107.168 | 100.112
17 | Cc1ccc2nc(CNCCCOc3ccccc3)cc(O)c2c1 [UCSF924] | 115.834 | 125.381 | 107.729 | 156.395 | 102.025 | 95.7371
18 | CC(C)Oc1ccc(-c2nn([C@@H](C)c3oc4ccc(F)cc4c(=O)c3-c3cccc(F)c3)c3ncnc(N)c23)cc1F [UMBRALISIB] | 103.314 | 87.858 | 96.678 | 112.425 | 161.449 | 91.4949
19 | CC[C@@H]1CN(C(=O)NCC(F)(F)F)C[C@@H]1c1cnc2cnc3[nH]ccc3n12 [UPADACITINIB] | 123.879 | 83.5298 | 104.182 | 86.3482 | 147.848 | 94.1248
20 | CNC(=O)c1ccccc1Nc1cc(Nc2ccc(N3CCOCC3)cc2OC)ncc1C(F)(F)F [VS-4718] | 13.9942 | 72.4438 | 52.8737 | 57.2971 | 18.7172 | 41.7282
21 | O=C(NNS(=O)(=O)c1ccccc1F)c1cc(F)cc(-c2ccccn2)c1 [WM-1119] | 69.0433 | 152.012 | 97.0333 | 108.11 | 29.5498 | 87.8305
22 | O=C(NNS(=O)(=O)c1ccccc1)c1cc(-c2ccnnc2)ccc1F [WM-2474] | 104.944 | 126.08 | 92.1572 | 93.3483 | 98.8891 | 109.079
23 | C=CC(=O)N1CCC([C@@H]2CCNc3c(C(N)=O)c(-c4ccc(Oc5ccccc5)cc4)nn32)CC1 [ZANUBRUTINIB] | 8.4337 | 202.782 | 36.1998 | 136.235 | 25.5759 | 117.13
24 | Nc1nc(NCc2ccccc2)nc(-c2cccc(CO)c2)n1 [ZINC32547799] | 125.25 | 66.6285 | 97.3324 | 116.001 | 98.7801 | 87.8082
25 | FC(F)c1nc2ccccc2n1-c1nc(N2CCOCC2)nc(N2CCOCC2)n1 [ZSTK-474] | 124.253 | 95.7276 | 29.4296 | 101.088 | 72.7664 | 74.8211
